Experimental findings from patent US7964624B1, “Inhibitors of serine proteases” (priority 2005, dated 2011) are described below.

The structures appear in SMILES notation.

The target of one assay is T1, HCV NS3 protease domain (Hepatitis C virus genotype 1b, UniProt Q9WMX2).
T1 construct: The first 181 amino acids of NS3 (residues 1027-1207 of the viral polyprotein); hexa-histidine (C); made in house; host or cells: E. coli BL21/DE3 pLysS
Description: biochemical. The settings on record: Enzyme Assay 1 (HCV NS3 Protease Domain Peptide Cleavage Assay) activity, apparent Ki class.
Consider `CCC[C@H](NC(=O)[C@@H]1C[C@]2(CC(c3cccc(Cl)c3)=NO2)CN1C(=O)[C@@H](NC(=O)Cc1cc(=O)[nH]c(=O)[nH]1)C(C)(C)C)C(=O)C(=O)NC1CC1` [Compound 553], for which the Ki fell in the range of 100 to 500 nM.

For the compound `CCC[C@H](NC(=O)[C@@H]1C[C@]2(CC(c3cc(F)c(F)c(F)c3)=NO2)CN1C(=O)[C@@H](NC(=O)O[C@H]1CCOC1)C(C)(C)C)C(=O)C(=O)NC1CC1` [Compound 215], the Ki lay within 100 to 500 nM.

`CCC[C@H](NC(=O)[C@@H]1C[C@]2(CC(c3ccc4c(c3)OCO4)=NO2)CN1C(=O)c1ccc[nH]1)C(=O)C(=O)NC1CC1` [Compound 464]: the Ki was greater than 500 nM.

Consider `CCC[C@H](NC(=O)[C@@H]1C[C@]2(CC(c3ccc(Cl)c(C)c3)=NO2)CN1C(=O)[C@@H](NC(=O)CC1CCCCC1)C(C)(C)C)C(=O)C(=O)NC1CC1` [Compound 436], for which the Ki lay within 100 to 500 nM.

For `CCC[C@H](NC(=O)[C@@H]1C[C@]2(CC(c3cccc(Cl)c3)=NO2)CN1C(=O)[C@@H](NC(=O)NCC(N)=O)C(C)(C)C)C(=O)C(=O)NC1CC1` [Compound 94], the Ki was less than 100 nM.

Regarding `CCC[C@H](NC(=O)[C@@H]1C[C@]2(CC(c3ccc([N+](=O)[O-])cc3)=NO2)CN1C(=O)[C@@H](NC(=O)O[C@H]1CCOC1)C(C)(C)C)C(=O)C(=O)NC1CC1` [Compound 511], the Ki is 100 to 500 nM.

With `CCC[C@H](NC(=O)[C@@H]1C[C@]2(CC(c3cccc(Cl)c3)=NO2)CN1C(=O)[C@@H](NC(=O)N1CCC2(CC1)CC(=O)c1ccccc12)C(C)(C)C)C(=O)C(=O)NC1CC1` [Compound 291], the Ki is greater than 500 nM.

As for `CCC[C@H](NC(=O)[C@@H]1C[C@]2(CC(c3cccc(Cl)c3)=NO2)CN1C(=O)C1CC1c1ccccc1)C(=O)C(=O)NC1CC1` (some centres unmarked) [Compound 421], the Ki is greater than 500 nM.

Turning to `CCC[C@H](NC(=O)[C@@H]1C[C@]2(CC(c3ccccc3)=NO2)CN1C(=O)[C@@H](NC(=O)O[C@H]1CCOC1)C(C)(C)C)C(=O)C(=O)NC1CC1` [Compound 202], the Ki is greater than 500 nM.

Regarding `CCC[C@H](NC(=O)[C@@H]1C[C@]2(CC(c3cccc(Cl)c3)=NO2)CN1C(=O)[C@@H](NC(=O)C(F)c1ccccc1)C(C)(C)C)C(=O)C(=O)NC1CC1` (some centres unmarked) [Compound 393], the Ki was in the range of 100 to 500 nM.

Take `CCC[C@H](NC(=O)[C@@H]1C[C@]2(CC(c3ccc4c(c3)OCO4)=NO2)CN1C(=O)[C@@H](NC(=O)O[C@H]1CCOC1)C(C)(C)C)C(=O)C(N)=O` [Compound 422]: the Ki fell in the range of 100 to 500 nM.

With `CCC[C@H](NC(=O)[C@@H]1C[C@]2(CC(c3cccc(Cl)c3)=NO2)CN1C(=O)[C@@H](NC(=O)[C@H](OC)c1ccccc1)C(C)(C)C)C(=O)C(=O)NC1CC1` [Compound 187], the Ki was greater than 500 nM.

Turning to `CCC[C@H](NC(=O)[C@@H]1C[C@]2(CC(c3cccc(Cl)c3)=NO2)CN1C(=O)[C@@H](NC(=O)CC1CCCCCC1)C(C)(C)C)C(=O)C(=O)NC1CC1` [Compound 360], the Ki was greater than 500 nM.

In the case of `CCC[C@H](NC(=O)[C@@H]1C[C@]2(CC(c3cccc(Cl)c3)=NO2)CN1C(=O)[C@@H](NC(=O)NC(C)(C)C)C(C)(C)C)C(=O)C(=O)NC1CC1` [Compound 492], the Ki is less than 100 nM.

In the case of `CCC[C@H](NC(=O)[C@@H]1C[C@]2(CC(c3ccccc3)=NO2)CN1C(=O)[C@@H](NC(=O)NCC)C(C)(C)C)C(=O)C(=O)NC1CC1` [Compound 580], the Ki fell in the range of 100 to 500 nM.

With `CCC[C@H](NC(=O)[C@@H]1C[C@]2(CC(c3ccc(OC)cc3)=NO2)CN1C(=O)[C@@H](NC(=O)CC1CCOCC1)C(C)(C)C)C(=O)C(=O)NC1CC1` [Compound 16], the Ki was greater than 500 nM.

With `CCC[C@H](NC(=O)[C@@H]1C[C@]2(CC(c3cccc(Cl)c3)=NO2)CN1C(=O)[C@@H](NC(=O)NCC(C)C)C(C)(C)C)C(=O)C(=O)NC1CC1` [Compound 156], the Ki is less than 100 nM.

Regarding `CCC[C@H](NC(=O)[C@@H]1C[C@]2(CC(c3cccc(Cl)c3)=NO2)CN1C(=O)[C@@H](NC(=O)Cc1cc(F)ccc1C)C(C)(C)C)C(=O)C(=O)NC1CC1` [Compound 155], the Ki is greater than 500 nM.

Turning to `CCC[C@H](NC(=O)[C@@H]1C[C@]2(CC(c3cccc(Cl)c3)=NO2)CN1C(=O)[C@@H](NC(=O)CC1CC(=O)c2ccc(OC)cc21)C(C)(C)C)C(=O)C(=O)NC1CC1` (some centres unmarked) [Compound 487], the Ki lay in the range of 100 to 500 nM.

As for `CCC[C@H](NC(=O)[C@@H]1C[C@]2(CC(c3cccc(Cl)c3)=NO2)CN1C(=O)[C@@H](Nc1cccc(OC)c1)C(C)(C)C)C(=O)C(=O)NC1CC1` [Compound 214], the Ki was greater than 500 nM.

As to `CCC[C@H](NC(=O)[C@@H]1C[C@]2(CC(c3cccc(Cl)c3)=NO2)CN1C(=O)[C@@H](NC(=O)O[C@H]1CCOC1)C(C)(C)C)C(=O)C(=O)NC1CC1` [Compound 83], the Ki was 100 to 500 nM.

Consider `CCC[C@H](NC(=O)[C@@H]1C[C@]2(CC(c3ccccc3)=NO2)CN1C(=O)[C@@H](NC(=O)[C@@H](NC(=O)c1cnccn1)C1CCCCC1)C(C)(C)C)C(=O)C(=O)NC1CC1` [Compound 281], for which the Ki is less than 100 nM.

As to `C=CCOC(=O)N[C@H](C(=O)N1C[C@@]2(CC(c3ccccc3)=NO2)C[C@H]1C(=O)N[C@@H](CCC)C(=O)C(=O)NC1CC1)C(C)(C)C` [Compound 151], the Ki was 100 to 500 nM.

For the compound `CCC[C@H](NC(=O)[C@@H]1C[C@]2(CC(c3ccc(OC)cc3OC)=NO2)CN1C(=O)[C@@H](NC(=O)CC1CCCCC1)C(C)(C)C)C(=O)C(=O)NC1CC1` [Compound 166], the Ki lay within 100 to 500 nM.

Consider `CCC[C@H](NC(=O)[C@@H]1C[C@]2(CC(c3cccc(Cl)c3)=NO2)CN1C(=O)[C@H](Cc1ccccc1)NC(=O)OCC)C(=O)C(=O)NC1CC1` [Compound 427], for which the Ki is greater than 500 nM.

Turning to `CCC[C@H](NC(=O)[C@@H]1C[C@]2(CC(c3cccc(Cl)c3)=NO2)CN1C(=O)[C@@H](NC(=O)OC1CCCOC1)C(C)(C)C)C(=O)C(=O)NC1CC1` (some centres unmarked) [Compound 515], the Ki was 100 to 500 nM.

With `CCC[C@H](NC(=O)[C@@H]1C[C@]2(CC(c3cccc(Cl)c3)=NO2)CN1C(=O)[C@@H](NC(=O)CC(C)C)C(C)(C)C)C(=O)C(=O)NC1CC1` [Compound 532], the Ki is greater than 500 nM.

In the case of `CCC[C@H](NC(=O)[C@@H]1C[C@]2(CC(c3cccc(Cl)c3)=NO2)CN1C(=O)[C@@H](NC(=O)NCc1cccnc1)C(C)(C)C)C(=O)C(=O)NC1CC1` [Compound 497], the Ki is 100 to 500 nM.

As to `CC(C)(C)[C@H](NC(=O)CC1CCCCC1)C(=O)N1C[C@@]2(CC(c3cccc(Cl)c3)=NO2)C[C@H]1C(=O)NC(CC1CCC1)C(=O)C(N)=O` (some centres unmarked) [Compound 217], the Ki is less than 100 nM.

The target in the next assay is T2, full-length hepatitis C viral protein NS3•4A (Hepatitis C virus genotype 1a, UniProt P27958).
T2 construct: hexa-histidine (N); made in house; host or cells: Sf9 insect cells (baculovirus, pVL1392)
The experiment in a line: biochemical. Also noted: species or system HCV sub-type strain 1a. To be noted: Enzyme Assay 2 (HCV NS3 Peptide Cleavage Assay) activity, apparent Ki class.
With `COc1cc(OC)c(C2=NO[C@]3(C2)C[C@@H](C(=O)N[C@@H](CC2CC2)C(=O)C(N)=O)N(C(=O)[C@@H](NC(=O)CC2(C)CCOCC2)C(C)(C)C)C3)cc1Cl` [Compound 529], the Ki is less than 100 nM.

Regarding `CNC(=O)C(=O)[C@H](CC1CC1)NC(=O)[C@@H]1C[C@]2(CC(c3cccc(Cl)c3)=NO2)CN1C(=O)[C@@H](NC(=O)CC1CC2CCC1C2)C(C)(C)C` (some centres unmarked) [Compound 716], the Ki was less than 100 nM.

In the case of `CNC(=O)C(=O)[C@H](CC1CC1)NC(=O)[C@@H]1C[C@]2(CC(c3cccc(Cl)c3)=NO2)CN1C(=O)[C@@H](NC(=O)CC1CCCCC1)C(C)(C)C` [Compound 522], the Ki is less than 100 nM.

As for `CCC[C@H](NC(=O)[C@@H]1C[C@]2(CC(c3cccc4cccnc34)=NO2)CN1C(=O)[C@@H](NC(=O)OC1CCCC1)C(C)(C)C)C(=O)C(=O)NC` [Compound 647], the Ki lay within 100 to 500 nM.

On to `CCC[C@H](NC(=O)[C@@H]1C[C@]2(CC(c3cc(Cl)cc(C)c3OC)=NO2)CN1C(=O)[C@@H](NC(=O)CC1CCCCC1)C(C)(C)C)C(=O)C(=O)NC1CC1` [Compound 643], for which the Ki is less than 100 nM.

For `CCC[C@H](NC(=O)[C@@H]1C[C@]2(CC(c3cc(Cl)nc4ccccc34)=NO2)CN1C(=O)[C@@H](NC(=O)OC1CCCC1)C(C)(C)C)C(=O)C(=O)NC1CC1` [Compound 639], the Ki is less than 100 nM.

Regarding `CCC[C@H](NC(=O)[C@@H]1C[C@]2(CC(c3cccc(Cl)c3)=NO2)CN1C(=O)[C@@H](NC(=O)CC1CCCCC1)C(C)(C)C)C(=O)C(=O)N1CC(OC[C@H]2CCCO2)C1` [Compound 238], the Ki is greater than 500 nM.

Turning to `CCC[C@H](NC(=O)[C@@H]1C[C@]2(CC(c3ccc(F)c(Cl)c3)=NO2)CN1C(=O)[C@@H](NC(=O)OC1CCCC1)C(C)(C)C)C(=O)C(=O)NC` [Compound 653], the Ki was in the range of 100 to 500 nM.

`CNC(=O)C(=O)[C@H](CC1CC1)NC(=O)[C@@H]1C[C@]2(CC(c3cc(Cl)c(OC)cc3OC)=NO2)CN1C(=O)[C@@H](NC(=O)OC1CCCC1)C(C)(C)C` [Compound 744]: the Ki was less than 100 nM.

Turning to `CCC[C@H](NC(=O)[C@@H]1C[C@]2(CC(c3ccc(NC)c(Cl)c3)=NO2)CN1C(=O)[C@@H](NC(=O)CC1CCCCC1)C(C)(C)C)C(=O)C(=O)NC1CC1` [Compound 771], the Ki is less than 100 nM.

Turning to `CCC[C@H](NC(=O)[C@@H]1C[C@]2(CC(c3cccc(Cl)c3)=NO2)CN1C(=O)[C@@H](NC(=O)CC1CCCCC1)C1(OC)CC1)C(=O)C(=O)NC1CC1` [Compound 211], the Ki was less than 100 nM.

Consider `CCC[C@H](NC(=O)[C@@H]1C[C@]2(CC(c3cccc(Cl)c3)=NO2)CN1C(=O)[C@@H](NC(=O)CC1CCCCC1)C(C)(C)C)C(=O)C(=O)N1CC(OCC2CCOC2)C1` (some centres unmarked) [Compound 49], for which the Ki was less than 100 nM.

The same assay, now with this note: Enzyme Assay 2, HCV NS3 Peptide Cleavage Assay, apparent Ki.
As for `CCOc1c(C)cc(C2=NO[C@]3(C2)C[C@@H](C(=O)N[C@@H](CC2CC2)C(=O)C(N)=O)N(C(=O)[C@@H](NC(=O)CC2CCCCC2)C(C)(C)C)C3)cc1C` [Compound 975], the Ki was less than 100 nM.

For `CCOc1c(C)cc(C2=NO[C@]3(C2)C[C@@H](C(=O)N[C@@H](CC2CC2)C(=O)C(=O)NC)N(C(=O)[C@@H](NC(=O)OC2CCCC2)C(C)(C)C)C3)cc1Cl` [Compound 817], the Ki was less than 100 nM.

With `CCC[C@H](NC(=O)[C@@H]1C[C@]2(CC(c3cc(C)c(OCC)c(Cl)c3)=NO2)CN1C(=O)[C@@H](NC(=O)[C@@H]1C[C@H]1c1ccccc1)C(C)(C)C)C(=O)C(=O)NC1CC1` [Compound 915], the Ki is less than 100 nM.
